Results from patent publication US20210261621A1, “Preparation of Dilipid Polymixins and Use Thereof as Antimicrobial Adjuvants” (priority 2018, published 2021).
≈ marks a conversion by molar mass, not a printed value. Read-outs that look alike come from different tables or passages of the source. Positions of bridges follow the written chain, without caps; N, C: chain ends. Non-standard residues stand in square brackets, D forms with d. Residues, ends and D or L forms follow the SMILES beside them. *: point of attachment. Lauroyl = CCCCCCCCCCCC(=O)*; Octanoyl = CCCCCCCC(=O)*; Dab = NCC[C@H](N)C(=O)O; Butyryl = CCCC(=O)*

Columns and labels:
MRSA ATCC 33592 = assay type: cell-based, Staphylococcus aureus
Text: (§1) Bacterial strains were either obtained from the American Type Culture Collection (ATCC), Canadian National Intensive Care Unit (CAN-ICU) surveillance study or the Canadian Ward Surveillance (CANWARD) study. Strains from both CAN-ICU and CANWARD are isolates recovered from patients diagnosed with a presumed infectious disease that were admitted in a participating medical center across Canada. Efflux-deficient strain PAO200 (lacking MexAB-OprM efflux system) and PA0750 (lacking MexAB-OprM, MexCD-OprJ, MexEF-OprN, MexJK and MexXY efflux systems, and the outer membrane protein OpmH) were kindly gifted by Dr. Ayush Kumar (University of Manitoba).
(§2) The in vitro antibacterial activity of the compounds studied were assessed by broth microdilution susceptibility testing following CLSI guidelines. Bacterial cultures were grown overnight prior to the assay. The overnight grown cultures were diluted in saline to 0.5 McFarland turbidity, followed by 1:50 dilution in Mueller-Hinton broth (MHB) for inoculation to a final concentration of approximately 5×10^5 colony forming units/mL. Testing was performed on 96-well plates where the tested compounds were 2-fold serially diluted in MHB and incubated with equal volumes of bacterial inoculum at 37° C. for 18 h. […] Wells containing MHB with or without bacterial cells were used as positive or negative control, respectively.

S. aureus ATCC 29213 = assay type: cell-based, Staphylococcus aureus
Text: as §1, §2

MSSE CANWARD-2008 81388 = assay type: cell-based, Staphylococcus epidermidis; settings: for MIC: MSSE CANWARD-2008 81388 (methicillin-susceptible Staphylococcus epidermidis)
Text: as §1, §2

MRSE CAN-ICU 61589 = assay type: cell-based, S. epidermidis
Text: as §1, §2

E. faecalis ATCC 29212 = assay type: cell-based
Text: as §1, §2

E. faecium ATCC 27270 = assay type: cell-based
Text: as §1, §2

S. pneumoniae ATCC 49619 = assay type: cell-based
Text: as §1, §2

E. coli 107115 = assay type: cell-based, Escherichia coli; settings: 107115
Text: as §1, §2

E. coli ATCC 25922 = assay type: cell-based, Escherichia coli
Text: as §1, §2

E. coli CAN-ICU 61714 = assay type: cell-based, Escherichia coli
Text: as §1, §2

E. coli CAN-ICU 63074 = assay type: cell-based, Escherichia coli
Text: as §1, §2

[1] = system: S. maltophilia CAN-ICU 62584; assay type: cell-based, Stenotrophomonas maltophilia
Text: as §1, §2

A. baumannii 110193 = assay type: cell-based, Acinetobacter baumannii
Text: as §1, §2

A. baumannii AB031 = assay type: cell-based, Acinetobacter baumannii
Text: as §1, §2

K. pneumoniae 116381 = assay type: cell-based, Klebsiella pneumoniae
Text: as §1, §2

K. pneumoniae ATCC 13883 = assay type: cell-based, Klebsiella pneumoniae
Text: as §1, §2

P. aeruginosa 101243 = assay type: cell-based, Pseudomonas aeruginosa; settings: 101243
Procedure: (§3) We then addressed the possibility for the dilipid polymyxins to display enhanced antibacterial activity against colistin-resistant Gram-negative pathogens. […] The extended hydrophobic region of the dilipid polymyxin may provide additional hydrophobic interactions to the outer membrane of colistin-resistant organisms. Eight MDR colistin-resistant Gram-negative bacterial isolates were tested, including two E. coli isolates harboring the mcr-1 plasmid-encoded polymyxin resistance gene. We found no difference between the antibacterial activity of dilipid polymyxins and colistin against colistin-resistant Gram-negative bacteria (Table 3).
as §1, §2

P. aeruginosa 114228 = assay type: cell-based, Pseudomonas aeruginosa; settings: 114228
Procedure: as §3, §1, §2

P. aeruginosa 91433 = assay type: cell-based, Pseudomonas aeruginosa; settings: 91433
Procedure: as §3, §1, §2

A. baumannii 92247 = assay type: cell-based, Acinetobacter baumannii; settings: 92247
Procedure: as §3, §1, §2

K. pneumoniae 113250 = assay type: cell-based, Klebsiella pneumoniae; settings: 113250
Procedure: as §3, §1, §2

K. pneumoniae 113254 = assay type: cell-based, Klebsiella pneumoniae; settings: 113254
Procedure: as §3, §1, §2

P. aeruginosa PAO200 = settings: for MIC: P. aeruginosa PAO200, efflux-deficient strain that lacks the MexAB-OprM pump
Text: (§4) To our curiosity, we explored whether efflux can affect the activity of polymyxins. It is widely accepted that polymyxins disrupt Gram-negative bacterial membranes that result to intracellular component leakage and bacterial cell death. However, for this to occur requires the agent to reach the periplasmic space to interact and disrupt the inner membrane. Active efflux may potentially expel polymyxins out of the periplasm, effectively reducing its periplasmic and intracellular concentrations. To study the effect of efflux on polymyxins in Gram-negative pathogens, we used P. aeruginosa as they inherently overexpress efflux systems such as MexAB-OprM, MexCD-OprJ and MexXY-OprM. Moreover, antibiotic substrates for these efflux systems are mostly characterized. We evaluated and compared the activity of the dilipid polymyxins, colistin and PMBN against wild-type PAO1 and two efflux-deficient P. aeruginosa isogenic mutants (Table 5). The strain PAO200 lacks the MexAB-OprM efflux system while strain PAO750 lacks five clinically-relevant pumps (MexAB-OprM, MexCD-OprJ, MexEF-OprN, MexJK and MexXY) and outer membrane protein OpmH.
as §1, §2

P. aeruginosa PAO750 = settings: P. aeruginosa PAO750, efflux-deficient strain that lacks five pumps and OpmH
Text: as §4, §1, §2

[2] = MRSA ATCC 33592 (methicillin-resistant Staphylococcus aureus)

Row | Structure (SMILES) | MIC (MRSA ATCC 33592; [2]) [µg/mL] | MIC (S. aureus ATCC 29213; S. aureus ATCC 29213) [µg/mL] | MIC (MSSE CANWARD-2008 81388) [µg/mL] | MIC (E. coli 107115) [µg/mL] | MIC (A. baumannii 110193; A. baumannii 110193) [µg/mL] | MIC (K. pneumoniae 116381; K. pneumoniae 116381) [µg/mL] | MIC (K. pneumoniae ATCC 13883; K. pneumoniae ATCC 13883) [µg/mL] | MIC (P. aeruginosa 101243) [µg/mL] | MIC (P. aeruginosa 114228) [µg/mL] | MIC (P. aeruginosa 91433) [µg/mL] | MIC (A. baumannii 92247) [µg/mL] | MIC (K. pneumoniae 113250) [µg/mL] | MIC (K. pneumoniae 113254) [µg/mL] | MIC (P. aeruginosa PAO200) [µg/mL] | MIC (P. aeruginosa PAO750) [µg/mL] | MIC (MRSE CAN-ICU 61589; CAN-ICU 61589) [µg/mL] | MIC (E. faecalis ATCC 29212; ATCC 29212) [µg/mL] | MIC (E. faecium ATCC 27270; ATCC 27270) [µg/mL] | MIC (S. pneumoniae ATCC 49619; ATCC 49619) [µg/mL] | MIC (E. coli ATCC 25922; ATCC 25922) [µg/mL] | also measured
1 | CCCC(=O)NCC[C@H](NC(=O)CCC)C(=O)N[C@H](C(=O)N[C@@H](CCN)C(=O)N[C@H]1CCNC(=O)[C@H]([C@@H](C)O)NC(=O)[C@H](CCN)NC(=O)[C@H](CCN)NC(=O)[C@H](CC(C)C)NC(=O)[C@@H](Cc2ccccc2)NC(=O)[C@H](CCN)NC1=O)[C@@H](C)O [Compound 1, Dibutyric Acid (Di-C4) Polymyxin] (Butyryl-[Dab](Butyryl)T[Dab][Dab][Dab][dF]L[Dab][Dab]T; lactam 4-C) | >128 | >128 | >128 | 128 (≈ 106 µM) | >128 | >128 | >128 | >128 | >128 | >128 | >64 | >64 | >64 | 4 (≈ 3.32 µM) | 8 (≈ 6.65 µM) | – | – | – | – | – | MIC (MRSE CAN-ICU 61589; MRSE CAN-ICU 61589 (methicillin-resistant S. epidermidis)): >128 µg/mL; MIC (E. faecalis ATCC 29212; E. faecalis ATCC 29212): >128 µg/mL; MIC (E. faecium ATCC 27270; E. faecium ATCC 27270): >128 µg/mL; MIC (S. pneumoniae ATCC 49619; S. pneumoniae ATCC 49619): >128 µg/mL; MIC (E. coli ATCC 25922; E. coli ATCC 25922): >128 µg/mL; MIC (E. coli CAN-ICU 61714; E. coli CAN-ICU 61714): >128 µg/mL; MIC (E. coli CAN-ICU 63074; E. coli CAN-ICU 63074): >128 µg/mL; MIC ([1]; S. maltophilia CAN-ICU 62584): >128 µg/mL; MIC (A. baumannii AB031; A. baumannii AB031): >128 µg/mL; fold difference in MIC against wild-type PAO1 and efflux-deficient PAO200 (P. aeruginosa PAO200; PAO1 versus PAO200 (lacks MexAB-OprM)): 32 fold
2 | CCCCCCCC(=O)NCC[C@H](NC(=O)CCCCCCC)C(=O)N[C@H](C(=O)N[C@@H](CCN)C(=O)N[C@H]1CCNC(=O)[C@H]([C@@H](C)O)NC(=O)[C@H](CCN)NC(=O)[C@H](CCN)NC(=O)[C@H](CC(C)C)NC(=O)[C@@H](Cc2ccccc2)NC(=O)[C@H](CCN)NC1=O)[C@@H](C)O [Compound 2, Dioctanoic Acid (Di-C8) Polymyxin] (Octanoyl-[Dab](Octanoyl)T[Dab][Dab][Dab][dF]L[Dab][Dab]T; lactam 4-C) | – | – | 8 (≈ 6.08 µM) | 2 (≈ 1.52 µM) | – | – | – | 32 (≈ 24.3 µM) | 4 (≈ 3.04 µM) | 4 (≈ 3.04 µM) | 8 (≈ 6.08 µM) | >64 | >64 | 2 (≈ 1.52 µM) | 2 (≈ 1.52 µM) | 16 (≈ 12.2 µM) | 32 (≈ 24.3 µM) | 16 (≈ 12.2 µM) | 32 (≈ 24.3 µM) | 4 (≈ 3.04 µM) | MIC (MRSA ATCC 33592; ATCC 33592): 16 µg/mL (≈ 12.2 µM); fold better MIC than colistin (MRSA ATCC 33592; methicillin-resistant Staphylococcus aureus): 32 fold; MIC (S. aureus ATCC 29213; ATCC 29213): 16 µg/mL (≈ 12.2 µM); fold better MIC than colistin (MSSE CANWARD-2008 81388; methicillin-susceptible Staphylococcus epidermidis): 32 fold; MIC (E. coli CAN-ICU 61714; CAN-ICU 61714): 32 µg/mL (≈ 24.3 µM); MIC (E. coli CAN-ICU 63074; CAN-ICU 63074): 64 µg/mL (≈ 48.6 µM); MIC ([1]; CAN-ICU 62584): 32 µg/mL (≈ 24.3 µM); MIC (A. baumannii 110193; 110193): 16 µg/mL (≈ 12.2 µM); MIC (A. baumannii AB031; AB031): 8 µg/mL (≈ 6.08 µM); MIC (K. pneumoniae 116381; 116381): >128 µg/mL; MIC (K. pneumoniae ATCC 13883; ATCC 13883): >128 µg/mL; difference in MIC among the three P. aeruginosa strains tested (P. aeruginosa PAO200; PAO1, PAO200, PAO750): no difference
3 | CCCCCCCCCCCC(=O)NCC[C@H](NC(=O)CCCCCCCCCCC)C(=O)N[C@H](C(=O)N[C@@H](CCN)C(=O)N[C@H]1CCNC(=O)[C@H]([C@@H](C)O)NC(=O)[C@H](CCN)NC(=O)[C@H](CCN)NC(=O)[C@H](CC(C)C)NC(=O)[C@@H](Cc2ccccc2)NC(=O)[C@H](CCN)NC1=O)[C@@H](C)O [Compound 3, Didodecanoic Acid (Di-C12) Polymyxin] (Lauroyl-[Dab](Lauroyl)T[Dab][Dab][Dab][dF]L[Dab][Dab]T; lactam 4-C) | >128 | >128 | 64 (≈ 44.8 µM) | 8 (≈ 5.6 µM) | >128 | >128 | >128 | 16 (≈ 11.2 µM) | >128 | 8 (≈ 5.6 µM) | 32 (≈ 22.4 µM) | >64 | >64 | 32 (≈ 22.4 µM) | 32 (≈ 22.4 µM) | 64 (≈ 44.8 µM) | 64 (≈ 44.8 µM) | 8 (≈ 5.6 µM) | 64 (≈ 44.8 µM) | 16 (≈ 11.2 µM) | MIC (E. coli CAN-ICU 61714; CAN-ICU 61714): 128 µg/mL (≈ 89.6 µM); MIC (E. coli CAN-ICU 63074; CAN-ICU 63074): 64 µg/mL (≈ 44.8 µM); MIC ([1]; CAN-ICU 62584): 128 µg/mL (≈ 89.6 µM); MIC (A. baumannii AB031; AB031): 64 µg/mL (≈ 44.8 µM)
